For one data set, the target named is T1, human 11β-HSD2 (Homo sapiens, UniProt P80365).
T1 construct: CHO cells stably transfected with the full-length gene coding for human 11β-HSD2 were used; expressed in transfected cells
T1 sequence (P80365 1-405): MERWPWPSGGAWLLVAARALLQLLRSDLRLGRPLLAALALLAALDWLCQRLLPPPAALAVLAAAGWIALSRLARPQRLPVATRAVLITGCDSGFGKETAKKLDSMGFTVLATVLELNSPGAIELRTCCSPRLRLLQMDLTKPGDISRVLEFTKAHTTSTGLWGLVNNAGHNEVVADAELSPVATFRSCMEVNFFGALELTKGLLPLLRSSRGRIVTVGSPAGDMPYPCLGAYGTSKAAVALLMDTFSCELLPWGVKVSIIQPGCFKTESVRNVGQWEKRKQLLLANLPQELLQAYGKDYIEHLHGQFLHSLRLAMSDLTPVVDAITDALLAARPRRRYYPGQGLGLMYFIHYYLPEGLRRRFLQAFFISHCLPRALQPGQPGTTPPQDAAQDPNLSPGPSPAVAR
In words: Cellular in vitro 11β-HSD2 enzyme inhibition assay (CHO cells). It is filed as cell-based. To be noted: CHO cells stably transfected with human 11β-HSD2; Table 1. How it is done:
Cellular In Vitro 11β-HSD2 Enzyme Inhibition Assay
Assays were carried out in 96-well microplates containing 1×10^5 cells/well. Controls and compounds were plated as above, so that the final DMSO concentration in each well was 1%. To initiate the assay, 90 μL of a solution of HAMS F-12 medium containing 1% glutamine, 1% penicillin and streptomycin, and 22 nM tritiated cortisol was added to each well of the assay plate. The plate was then incubated in 5% CO2, 95% O2 at 37° C. for 16 hours.
The assay solutions were transferred to glass tubes and 20 μL ethyl acetate added to each tube. Each tube was vortexed thoroughly and the upper layer containing the tritiated steroid transferred to a fresh glass tube. The solvent was evaporated by placing the tubes in a heating block at 65° C. under a stream of Nitrogen gas. 20 μL ethanol was added to each of the dried samples and vortexed briefly. Each sample was applied to a silica TLC plate and the plate dried. The plate was placed vertically in a glass tank containing 92% chloroform:8% ethanol and the solvent allowed to rise up the plate. The plate was dried, placed in an imaging cassette, and overlayed with a tritium imaging plate for 1-2 days. The amount of enzyme inhibition in each sample was determined by measuring the intensity of the substrate and product spots using a phosphoimager.
IC50 values for inhibitors were determined as described for 11β-HSD1.

The next data set addresses T2, human 11β-HSD1 enzyme (Homo sapiens, UniProt P28845).
T2 construct: stably transfected with a construct containing the full-length gene coding for the human 11β-HSD1 enzyme; expressed in transfected cells; HEK293/11β-HSD1 cells)
In words: Cellular in vitro 11β-HSD1 enzyme inhibition assay (SPA, HEK293/11β-HSD1 cells). It is filed as cell-based. The following applies: read-out: IC50 for 11β-HSD1 (HEK293). How it is done:
Cellular In Vitro 11β-HSD1 Enzyme Inhibition Assay
Compounds were assessed by a Scintillation Proximity Assay (SPA) performed according to the following protocol:
HEK293 cells were stably transfected with a construct containing the full-length gene coding for the human 11β-HSD1 enzyme to create HEK293/11β-HSD1 cells. Cells were routinely cultured in DMEM containing 10% calf foetal serum, 1% glutamine, and 1% penicillin and streptomycin. Prior to assay, cells were plated at 2×10^4 cells/well in 96-well poly-D-Lys coated flat-bottomed microplates and incubated in 5% CO2, 95% O2 at 37° C. for 24 hours. The media in each well was removed immediately before assay.
Compounds to be tested were dissolved in DMSO at 10 mM and serially diluted into water containing 10% DMSO. Diluted compounds at a volume of 10 μL were added to wells of a 96-well V-bottomed microplate. A solution of DMEM, 1% glutamine, 1% penicillin and streptomycin, and 22 nM tritiated cortisone was prepared and 90 μL added to each well of the assay plate. This solution (100 μL/well) was transferred to the plate containing the cells. The plate was then incubated in 5% CO2, 95% O2 at 37° C. for 2 hours.
Following this incubation, 50 μL of the assay solution was transferred to each well of a 96-well scintillation microplate. A mixture consisting of anti-mouse YSi SPA beads, pre-mixed with anti-cortisol antibody in assay buffer (50 mM Tris.HCl, pH 7.0; 300 mM NaCl; 1 mM EDTA, 5% glycerol) was prepared and 50 μL added to each well of the scintillation microplate. An adhesive strip was applied to the microplate and the plate gently shaken for at least 2 hours at room temperature, and then spun briefly on a low speed centrifuge. The plate was read on a scintillation counter suitable for 96-well microplates. For the calculation of percentage inhibition, a series of wells were added to the plate that represented the assay maximum and the assay minimum: one set that contained substrate without cells (minimum) and another set that contained substrate and cells without any compound (maximum).
The calculation of median inhibitory concentration (IC50) values for the compounds was performed using GraphPad Prism® software. Dose-response curves for each compound were plotted as fractional inhibition and data fitted to the four parameter logistic equation.

Data set [1] is described as follows: In vitro human liver microsomal stability assay. It is filed as in vitro ADME. To be noted: human liver microsomes. How it is done:
In Vitro Human Liver Microsomal Stability Assay
To predict in vivo metabolism of compounds, the stability of compounds incubated with human liver microsomes in vitro was determined. Human liver microsome preparations were stored at −80° C. and thawed on ice prior to use. The thawed microsomes were diluted to a concentration of 2 mg/mL in 50 mM sodium phosphate, pH 7.4. Reference and test compounds were prepared as 10 mM stocks in 100% DMSO and diluted to 1 mM in acetonitrile before use. Each compound was tested in triplicate as follows:
4 μL of test or reference compound was added to a well of a 24-well microplate and 0.5 mL of 4 mM NADPH added. The plate was then transferred to a shaker for 10 minutes at room temperature. 30 μL of the compound/NADPH solution was transferred to the well of a 96-well microplate and incubated at 37° C. for 5 minutes. 30 μL of human liver microsomes (pre-incubated at 37° C. for 5 minutes) was added to the well containing the compound/NADPH solution and the plate incubated for the selected period of time (typically 0 or 30 minutes). The reaction was stopped by adding 60 μL of ice cold […] trichloroacetic acid. The plate was centrifuged at 1000 rpm for 5 minutes at room temperature and the supernatant transferred to the well of a new 96-well v-bottomed microplate for mass spectrometric analysis.
Samples were analyzed by TSQ Quantum Discovery Tandem Mass Spectrometer and Surveyor Liquid Chromatogram (Thermo, Hemel-Hempstead, UK). 10 μL of each sample was injected in a mobile phase consisting of 60%:40% methanol:5 mM ammonium acetate at a flow rate of 0.5 mL/minute. The column used was a BDS hypersil, C18, 50×2.1 mm with a 5 μm particle size.
Each compound was tuned with a spray voltage of 3000 V and a capillary temperature of 300° C. and values for tube lens, CID and product ions were determined.
The peak area for each compound was measured in triplicate for the 0 and 30 minute samples and the average of each was reported. The percentage remaining after 30 minutes was calculated as the average peak area of the sample after 30 minutes divided by the average peak area at 0 minutes. The RSD was 10% or lower for each compound.

Another data set in a line: Pharmacokinetics in rat. Format: in vivo, male Sprague Dawley rats. To be noted: male, Sprague Dawley, whole blood, intravenous 1 mg/kg and oral 10 mg/kg, read-out: % F (% Bioavailability). How it is done: The pharmacokinetics of certain compounds were determined following intravenous (1 mg/kg) and oral (10 mg/kg) administration to male Sprague Dawley rats. Dosing solution was prepared by mixing each compound with 2% DMSO, 38% PEG-400 and 60% (0.9%) NaCl. Solutions were passed through 0.2 μm filters prior to administration.
Following dosing and at appropriate time points, blood samples were taken from a lateral tail vein and transferred into a tube pre-treated with EDTA. Blood samples were analysed for parent compound by LCMS and the quantity of parent compound remaining determined. Non-compartmental analysis was applied to the data using WinNonlin™ software to determine the pharmacokinetic parameters for each compound.

The mark [2] stands for this setting: HEK293 cells stably transfected with human 11β-HSD1, Table 1.

Molecules are shown by their SMILES. Like-named read-outs stand apart in the source and are kept apart here.

T2 sequence (P28845 whole entry): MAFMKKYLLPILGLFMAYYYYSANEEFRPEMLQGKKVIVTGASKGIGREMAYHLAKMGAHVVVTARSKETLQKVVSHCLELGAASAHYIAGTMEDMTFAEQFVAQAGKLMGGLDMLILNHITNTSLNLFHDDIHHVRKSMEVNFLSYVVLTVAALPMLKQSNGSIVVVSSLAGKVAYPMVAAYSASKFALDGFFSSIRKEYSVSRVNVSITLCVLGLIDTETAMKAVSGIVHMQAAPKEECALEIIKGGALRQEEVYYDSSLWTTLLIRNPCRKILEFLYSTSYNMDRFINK

The term IC50 denotes the point on the concentration scale where inhibition reaches its midpoint. What is called bioavailability is dose-corrected exposure relative to a reference, in per cent. For `O=C(c1csc(-c2cn[nH]c2)c1)N1CCC(O)(c2ccccc2)CC1` [AA-01, (4-Hydroxy-4-phenyl-piperidin-1-yl)-[5-(1H-pyrazol-4-yl)-thiophen-3-yl]-methanone], the IC50 on human 11β-HSD2 is more than 10000 nM; at human 11β-HSD1 enzyme (setting [2]), 208 nM; at human 11β-HSD1 enzyme, not above 500 nM. The “% Parent Remaining at 30 min” value in data set [1] is given as “+++ (61-100% +++)”. The bioavailability in “Pharmacokinetics in rat” was in the range of 31 to 100%.
Turning to `O=C(c1csc(-c2cn[nH]c2)c1)N1CCC(O)(c2ccc(Cl)cc2)CC1` [AA-02], the IC50 on human 11β-HSD1 enzyme was not above 500 nM. For the same compound, the “% Parent Remaining at 30 min” value in data set [1] is on record as “+++ (61-100% +++)”. In the data set “Pharmacokinetics in rat”, the bioavailability is 31 to 100%.
Take `O=C(c1csc(-c2cn[nH]c2)c1)N1CCC(O)(c2ccccc2F)CC1` [AA-04]: the IC50 against human 11β-HSD2 was more than 10000 nM; at human 11β-HSD1 enzyme (setting [2]), 44 nM; at human 11β-HSD1 enzyme it was not above 500 nM. For the same compound, in data set [1], the “% Parent Remaining at 30 min” value is listed as “+++ (61-100% +++)”. Moreover, in the data set “Pharmacokinetics in rat”, the bioavailability is 31 to 100%.
Take `O=C(c1csc(-c2cn[nH]c2)c1)N1C2CCC1CC(O)(c1ccccc1)C2` (centres unmarked) [AA-06]: the IC50 against human 11β-HSD2 was more than 10000 nM; at human 11β-HSD1 enzyme (setting [2]), 21 nM; on human 11β-HSD1 enzyme, not above 500 nM. Moreover, the “% Parent Remaining at 30 min” value in data set [1] is on record as “+++ (61-100% +++)”. Further, in “Pharmacokinetics in rat”, the bioavailability lay within 11 to 30%.
Taken in the same sequence, the figures for `O=C(c1csc(-c2cn[nH]c2)c1)N1CCC(O)(c2ccccc2Cl)CC1` [AA-08] were more than 10000 nM, 10 nM, not above 500 nM, “++ (31-60% ++)” and 31 to 100%.
For the compound `O=C(c1csc(-c2cn[nH]c2)c1)N1CCC(O)(c2ccc(F)cc2Cl)CC1` [AA-12], the IC50 against human 11β-HSD2 is more than 10000 nM; at human 11β-HSD1 enzyme (setting [2]) it was 99 nM; on human 11β-HSD1 enzyme, not above 500 nM.
`COC1(c2ccccc2)CCN(C(=O)c2csc(-c3cn[nH]c3)c2)CC1` [AA-15]: the IC50 against human 11β-HSD2 is more than 10000 nM; on human 11β-HSD1 enzyme (setting [2]) it was 110 nM; at human 11β-HSD1 enzyme it was not above 500 nM. Also, in data set [1], the “% Parent Remaining at 30 min” value was “++ (31-60% ++)”.
Turning to `O=C(c1csc(-c2cn[nH]c2)c1)N1CCC(F)(c2ccccc2)CC1` [AA-17], the IC50 at human 11β-HSD1 enzyme was in the range of 500 to 1000 nM. Also, the “% Parent Remaining at 30 min” value in data set [1] is “+++ (61-100% +++)”. Further, the bioavailability in the data set “Pharmacokinetics in rat” was 31 to 100%.
As to `O=C(c1csc(-c2cn[nH]c2)c1)N1CCC(F)(c2ccccc2F)CC1` [AA-18], the half-inhibitory concentration (IC50) was more than 10000 nM against human 11β-HSD2, 104 nM at human 11β-HSD1 enzyme (setting [2]) and not above 500 nM on human 11β-HSD1 enzyme. Besides, in data set [1], the “% Parent Remaining at 30 min” value was “++ (31-60% ++)”.
As for `Cc1cccc(F)c1C1(O)CCN(C(=O)c2csc(-c3cn[nH]c3)c2)CC1` [AA-22], the IC50 was more than 10000 nM at human 11β-HSD2, 38 nM on human 11β-HSD1 enzyme (setting [2]) and not above 500 nM on human 11β-HSD1 enzyme. Besides, in data set [1], the “% Parent Remaining at 30 min” value is “+++ (61-100% +++)”.
Taken in the same sequence, the figures for `O=C(c1csc(-c2cn[nH]c2)c1)N1C2CCC1CC(O)(c1ccccc1Cl)C2` (centres unmarked) [AA-30] were more than 10000 nM, 15 nM, not above 500 nM and “++ (31-60% ++)”.
In the same order, the values of `COC1(c2ccccc2Cl)CCN(C(=O)c2csc(-c3cn[nH]c3)c2)CC1` [AA-33] are more than 10000 nM, 19 nM, not above 500 nM and “+ (0-30% +)”.
In the same order, the values of `O=C(c1csc(-c2cn[nH]c2)c1)N1CCC(F)(c2ccccc2Cl)CC1` [AA-36] are more than 10000 nM, 42 nM, not above 500 nM and “+ (0-30% +)”.
Take `O=C(c1csc(-c2cn[nH]c2)c1)N1CCC(F)(c2cc(F)ccc2Cl)CC1` [AA-37]: the IC50 against human 11β-HSD2 was more than 10000 nM; on human 11β-HSD1 enzyme (setting [2]), 35 nM; at human 11β-HSD1 enzyme, not above 500 nM. Besides, the “% Parent Remaining at 30 min” value in data set [1] is on record as “++ (31-60% ++)”.
Taken in the same sequence, the figures for `COc1ccccc1C1CCN(C(=O)c2csc(-c3cn[nH]c3)c2)CC1` [BB-03] were more than 10000 nM, 107 nM, not above 500 nM and “+ (0-30% +)”.
Taken in the same sequence, the figures for `O=C(c1csc(-c2cn[nH]c2)c1)N1C2CCC1CC(c1ccccc1)C2` (centres unmarked) [BB-08] were more than 10000 nM, 114 nM, not above 500 nM and “++ (31-60% ++)”.
Turning to `Cc1n[nH]cc1-c1cc(C(=O)N2CCC(c3ccccc3)CC2)cs1` [BB-11], the 50% inhibitory concentration (IC50) against human 11β-HSD2 is more than 10000 nM; on human 11β-HSD1 enzyme (setting [2]) it was 638 nM; at human 11β-HSD1 enzyme it was 500 to 1000 nM.

For the origin of these results see patent US8642621B2, “(4-phenyl-piperidin-1-yl)-[5-(1H-pyrazol-4-yl)-thiophen-3-yl]-methanone compounds and their use” (The University Of Edinburgh, priority 2009, dated 2014).
